Entries after “also recorded” stand apart in the source; their conditions may differ.
System: primary human hepatocytes
Test: Vitality of primary human hepatocytes (WST-1)
Type: cell-based
Conditions: 24-h incubation, increasing concentrations
Procedure: Apoptosis/necrosis was evaluated using annexin V-5-fluorescein isothiocyanate (FITC)/propidium iodine (PI) staining followed by flow cytometric analysis. […] The proportion of dead cells (a: annexin V-FITC^−/PI^+), late apoptotic/necrotic cells (b: annexin V-FITC^+/PI^+), non-apoptotic cells (c: annexin V-FITC^−/PI^−) and early apoptotic cells (d: annexin V-FITC^+/PI^−). (B) Results of 3 independent experiments. […] Data represent the mean±S.D. of three independent experiments.
Primary human hepatocytes were isolated and cultivated in serum-free William Medium E [59]. Tissue samples from human liver resection were obtained from patients undergoing partial hepatectomy for metastatic liver tumor of colorectal cancer. Experimental procedures were performed according to the guidelines of the charitable state controlled foundation (Human Tissue and Cell Research), with the informed patient's consent approved by the local ethical committee.
Cell proliferation/vitality of tumor cells (96-well plates; 5000 cells/well) and primary human hepatocytes (24-well plates; 0.25×10^6 cells/well) was assayed using the WST-1 assay according to manufacturer's instructions. Trypan blue exclusion was performed by staining cells with 0.4% aqueous trypan blue solution according to the manufacturer's instructions.

COc1cc(C=CC(=O)CC(=O)C=Cc2ccc(O)c(OC)c2)ccc1O [curcumin, 1,7-bis(4-hydroxy-3-methoxyphenyl)-1,6-heptadiene-3,5-dione]
cell vitality of primary human hepatocytes: no effect; also recorded: not affected

From publication PMC2567432 (PLoS ONE, 2008)
